PMC7031697, “Mechanism of Activation of AMPK by Cordycepin” (Cell Chemical Biology, 2020)
Where two headings read alike, the source gives them in different places.

What was measured:
[1] = test system: AMPK; parameters: method as in Guo et al., 2010; settings: HepG2 cells, medium without serum but with 0.02% (w/v) BSA; ref Guo et al., 2010; cited from earlier work
[2] = test system: AMPK; experiment: AMPK activity in anti-AMPK-α immunoprecipitates from HepG2 cells treated with cordycepin; type: cell-based, human
Description: (§1) HepG2 cells ([…]) were cultured in Minimum Essential Medium (MEM) supplemented with 10% (v/v) FBS, 1% (v/v) non-essential amino acids and 1% (v/v) penicillin/streptomycin. Transient transfection of DNAs encoding FLAG-tagged AMPK-γ2 or an R531G mutant of AMPK-γ2 were carried out 36-48 hr prior to experiments using Fugene 6 according to manufacturers’ instructions. U2OS cells ([…]) were cultured in Dulbecco’s Modified Eagle’s Medium (DMEM) supplemented with 10% (v/v) FBS and 1% (v/v) penicillin/streptomycin.
Endogenous AMPK in crude cell lysates was first immunoprecipitated using an equal mixture of anti-α1 and –α2 antibodies (150 μg protein) by incubation at 4°C for 2 hr on a roller mixer. After extensive washing, the immunoprecipitates were assayed for AMPK activity (50 μg per assay, total assay volume 50 μl) using the AMARA peptide (200 μM) as substrate in the presence of 200 μM AMP, 5 mM MgCl2 and 200 μM [γ-^32P]ATP ([Fyffe et al., 2018]).

[3] = biological target: T1, AMPK complexes containing WT γ2 (Homo sapiens, UniProt Q9UGJ0); experiment: AMPK activity in anti-FLAG immunoprecipitates, HepG2 cells with FLAG-tagged WT AMPK-γ2; type: cell-based; settings: 1 h, 300 μM cordycepin, 10 mM phenformin or 300 μM A-769662
T1 construct: expressed in transfected cells; host or cells: HepG2 (transient, Fugene 6)
Description: as §1
HepG2 cells were transiently transfected with DNAs encoding FLAG-tagged wild type AMPK-γ2 or the R531G mutant, using Fugene 6 according to the manufacturers’ instructions. After transfection for 48 hr, cells were treated with various agents as described, and cell lysates prepared ([Hawley et al., 2018]). FLAG-tagged AMPK was then immunoprecipitated from 150 μg total protein by incubation at 4°C for 2 hr on a roller mixer with 9 μl of EZview Red anti-FLAG M2 affinity gel. After extensive washing, the immunoprecipitates were assayed for AMPK activity (50 μg per assay in a total volume of 50 μl) using the AMARA peptide (200 μM) as substrate in the presence of 200 μM AMP, 5 mM MgCl2 and 200 μM γ-^32P-ATP as described previously ([Fyffe et al., 2018]).

[4] = test system: HepG2 cells; experiment: Clonal survival assay, HepG2; type: cell-based, human; settings: for EC50: Homo sapiens, read-out: half-maximal effect on cell survival
Description: (§2) Cells were seeded into 6-well plates at equal density and treated in triplicate at 40% to 60% confluence with vehicle or cordycepin for the indicated time. Cells were trypsinized in 1 ml trypsin:EDTA for 5 min and diluted in 1 ml of complete medium. Cells in control wells were counted using a hemocytometer and 1000 cells from vehicle and cordycepin-treated wells were seeded in triplicate into 10 cm dishes containing 10 ml of medium. The dishes were incubated at 37°C for 10-15 days. […] The dishes were washed with water and the number of colonies counted manually.

[5] = test system: wild-type (WT) U2OS cells; experiment: Clonal survival assay, wild-type U2OS; type: cell-based; settings: Homo sapiens, 8 h incubation, read-out: half-maximal effect on clonal survival
Description: Cells were seeded into 6-well plates at equal density and treated in triplicate at 40% to 60% confluence with vehicle or cordycepin for the indicated time. Cells were trypsinized in 1 ml trypsin:EDTA for 5 min and diluted in 1 ml of complete medium. Cells in control wells were counted using a hemocytometer and 1000 cells from vehicle and cordycepin-treated wells were seeded in triplicate into 10 cm dishes containing 10 ml of medium. The dishes were incubated at 37°C for 10-15 days. On the last day, the medium was decanted, cells fixed with ice-cold methanol for 10 min and stained with 10% v/v Giemsa stain in water for 15 min. The dishes were washed with water and the number of colonies counted manually.

[6] = test system: AMPK DKO U2OS cells; experiment: Clonal survival assay, AMPK DKO U2OS; type: cell-based; settings: Homo sapiens, 8 h incubation, read-out: half-maximal effect on clonal survival
Source text: AMPK-α1^-/- -α2^-/- U2OS cells were generated using the Cas9 (D10A) double nickase system. Pairs of guide RNAs targeted to exon 4 in both PRKAA1 and PRKAA2, along with screening primers for genotyping, were designed and cloned by Thomas Macartney and are available by contacting MRCPPU Reagents and Services (https://mrcppureagents.dundee.ac.uk). Sense guides were cloned into the puromycin-selectable pBABED puro U6 vector and antisense guides into the Cas9 (D10A) vector pX335. U2OS cells carrying a Flp recombinase target site were transfected with 1 μg of each plasmid using Fugene6 according to manufacturers’ instructions. At 24 and 48 hr after transfection, medium was replaced with fresh medium containing 1 μg/ml puromycin. […] Clones were expanded and screened for loss of AMPK protein and activity by Western blotting using anti-AMPK-α and pACC antibody normalised to total ACC detected using streptavidin. […]
as §2, with “Cells were trypsinized in 1 ml trypsin:EDTA for 5 min and diluted in 1 ml of complete medium.” left out, “medium.” for “medium. The dishes were incubated at 37°C for 10-15 days.”

[7] = test system: AMPK; experiment: Phosphorylation of AMPK, ACC and Raptor in HepG2 cells (western blotting); type: cell-based, human; settings: cordycepin at 100 μM and above, 1 h
Description: SDS-PAGE for AMPK and Raptor was performed using precast Bis-Tris 4–12% gradient polyacrylamide gels in the MOPS buffer system (Invitrogen). SDS-PAGE for ACC was performed using precast Tris-Acetate 3–8% gradient polyacrylamide gels in the Tris-Acetate buffer system (Invitrogen). Proteins were transferred to nitrocellulose membranes using the iBlot2 system (Invitrogen). Membranes were blocked for 1 hr in Li-Cor Odyssey blocking buffer. The membranes were probed with appropriate antibody (0.1–1 μg/ml) in Li-Cor Odyssey blocking buffer, except where the blotting enhancement system was used (Thermo Scientific; as per manufacturers’ instructions). Detection was performed using secondary antibody (1 μg/ml) coupled to IR 680 or IR 800 dye, or IR-streptavidin 800 dye, and the membranes were scanned using the Li-Cor Odyssey IR imager. Protein concentrations were determined by Coomassie Blue binding with bovine serum albumin as standard ([Bradford, 1976]).

[8] = test system: HepG2 cells; experiment: MTT assay for cell proliferation; type: cell-based, human
Description: After treatment for the specified time, the effect of cordycepin on cell proliferation was determined using the MTT assay kit (Abcam, ab211091) as per manufacturers’ instructions.

T1 sequence (Q9UGJ0 whole entry, one chain of several): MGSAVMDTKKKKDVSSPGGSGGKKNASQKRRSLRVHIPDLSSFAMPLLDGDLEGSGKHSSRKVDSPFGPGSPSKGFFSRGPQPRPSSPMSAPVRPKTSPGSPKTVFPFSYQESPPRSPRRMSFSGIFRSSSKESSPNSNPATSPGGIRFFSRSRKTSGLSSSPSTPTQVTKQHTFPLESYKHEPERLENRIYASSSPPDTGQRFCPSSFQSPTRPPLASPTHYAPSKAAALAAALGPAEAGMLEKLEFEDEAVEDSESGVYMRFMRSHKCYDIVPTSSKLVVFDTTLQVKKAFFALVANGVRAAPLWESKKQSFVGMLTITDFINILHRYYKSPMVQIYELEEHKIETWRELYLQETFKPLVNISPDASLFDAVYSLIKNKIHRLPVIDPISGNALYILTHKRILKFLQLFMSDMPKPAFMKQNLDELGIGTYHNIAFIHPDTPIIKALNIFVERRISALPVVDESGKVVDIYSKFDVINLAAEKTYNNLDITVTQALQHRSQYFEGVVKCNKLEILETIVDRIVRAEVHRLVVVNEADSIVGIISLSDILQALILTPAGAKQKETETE

## Nc1ncnc2c1ncn2[C@@H]1O[C@H](CO)C[C@H]1O [cordycepin, 3′-deoxyadenosine]
[1]
  concentration at which AMPK was activated: ≥ 1 µM
[2]; 30 μM cordycepin, 1 h, medium with serum
  AMPK activation: No activation was evident
[2]; 100 μM cordycepin, time course
  time of return of AMPK phosphorylation and activation to baseline: ≤ 4 h
[2]; 100 μM cordycepin, time course, at 1 h
  peak increase in phosphorylation and activation of AMPK: ≈ 2 fold
[2]; cordycepin 1 h, medium with serum, read-out: half-maximal effect (EC50) on AMPK kinase activity
  EC50: 310 ± 60 µM
[2]; cordycepin 1 h, medium with serum, ±SEM
  kinase activity of AMPK, maximum increase: 7 ± 1 fold
[3]
  activation of AMPK complexes containing WT γ2: activated
[4]; 100 μM
  effect on clonal survival: only partial effects
[4]; 300 μM
  effect on clonal survival: almost complete death
[4]; 1 mM
  effect on clonal survival: almost complete death
[4]; 2 h treatment
  EC50: 130 µM
[4]; 8 h treatment
  EC50: 70 µM
[4]; 24 h treatment
  EC50: 35 µM
[5]
  EC50: 81 ± 4 µM
[6]
  EC50: 44 ± 2 µM
[7]
  phosphorylation of Thr172 on AMPK, ACC1 Ser80 and Raptor Ser792: increased
[8]; 30 μM, after 72 h
  effect on cell proliferation: only very small effects
[8]; 100 μM, after 72 h
  decrease in cell proliferation: 30%
[8]; 300 μM
  effect on cell proliferation: completely prevented cell proliferation
[8]; 1 mM
  effect on cell proliferation: completely prevented cell proliferation
